Reference: patent US9464113B2, “Anti-heparan sulfate peptides that block herpes simplex virus infection in vivo” (The Board of Trustees of the University of Illinois, priority 2010, dated 2016)

Tested on: HSV-1 (KOS) gL86
Test: HSV-1 entry into primary human corneal fibroblasts (CF)
Assay type: cell-based, herpes simplex virus type-1
Conditions: CF, 6 h, ONPG (FIG. 4A)
Protocol: HSV-1 entry was assayed as described in Shukla et al., Cell 99:13-22 (1999). CHO-K1 cells were grown in 6-well plates to subconfluence and then transfected with 2.5 μg of expression plasmids for gD receptors nectin-1 (pBG38), HVEM (pBec10), 3-OST-3 isoform (pDS43), or pCDNA3.1 (empty vector) using LipofectAMINE (Gibco/BRL). At 16 h post-transfection, the cells were replated into 96-well dishes for pre-incubation with peptides at different concentrations for 60 min at room temperature. In parallel, natural target cells (HeLa, CF, and RPE) were also pre-treated with the peptides for the same duration. In all cases, unbound peptides were removed after washing 3× with PBS. Thereafter, cells were infected for 6 h with a recombinant virus, HSV-1 (KOS) gL86, at multiple plaque forming units (PFUs) and β-galactosidase assays were performed using either a soluble substrate o-nitrophenyl-β-D-galactopyranoside (ONPG at 3.0 mg/ml; ImmunoPure, Pierce) or X-gal (Sigma). For the soluble substrate, the enzymatic activity was measured at 410 nm using a micro-plate reader (Spectra Max 190, Molecular Devices, Sunnyvale, Calif.). For the X-gal assay, cells were fixed (2% formaldehyde and 0.2% glutaraldehyde) and permeabilized (2 mM MgCl2, 0.01% deoxycholate, and 0.02% nonidet NP-40 (Sigma)). 1 ml of β-galactosidase reagent (1.0 mg/ml X-gal in ferricyanide buffer) was added to each well and incubated at 37° C. for 90 min before the cells were examined using bright field microscopy under the 20× objectives of the inverted microscope (Zeiss Axiovert 100 M).
The ability of the G1 and G2 peptides to block HSV-1 entry into natural target cells (HeLa and primary cultures of human CF) was compared. A similar dosage response curve was generated when HeLa (FIG. 2A) or CF (FIG. 2B) were pre-treated with G1 or G2 peptides during HSV-1 entry. […] HeLa cells (FIG. 2A) and primary cultures of human corneal fibroblasts (CF) (FIG. 2B) were tested. Cells in 96-well plates were pre-treated for 60 min with indicated mM concentrations of G1, G2, or Cp peptides. Mock-treated cells (abbreviated as C) served as a control. Pretreated cells were infected with a β galactosidase-expressing recombinant virus HSV-1 (KOS) HSV-1 gL86 (25 pfu/cell) for 6 hr. Viral entry was quantitated as described above in reference to FIG. 1. Confirmation of HSV-1 entry blocking activity of G1, G2, and control (Cp) peptides on a per cell basis was obtained after cells were infected as described above followed by X-gal (1.0 mg/ml) staining (Right panels), which yields an insoluble blue product upon hydrolysis by β-galactosidase expressed from the input viral genomes. […] Microscopy was performed using a 20× objective of Zeiss Axiovert 100.
To better understand the inhibitory potential of G1 and G2 peptides, synthetic short variants (10-mer) were synthesized that lacked the terminal non-positively charged amino acids. In case of G1, N-terminus L and C-terminus H residues were removed. For G2, the N-terminus flanking residues (M and P) were removed. Without being bound by theory, it is believed that 12-mer peptides are too short to adopt substantial secondary or tertiary structures and that the primary structure of those peptides, which includes a defined sequence or groupings of positively charged residues, plays a critical role in mediating inhibition of HSV-1 entry. Synthetic 10-mer versions of G1 and G2 (shown above) were tested for blocking HSV-1(KOS)gL86 entry into cultured CF. After 6 h, the viral entry was measured by ONPG assay as described in FIG. 1.
Alanine (A) scanning mutagenesis was performed to identify specific amino acid residues responsible for each peptide's function, stability, and conformation. O'Nuallain et al., Biochemistry 46:13049-13058 (2007). Twelve synthetic peptides were made whereby each residue of G2 was sequentially replaced with an alanine residue and corresponding changes in the G2 peptide were evaluated for their ability to affect viral entry (FIG. 4B). […]

Sequence | ability of 10-mer version to block HSV-1 entry compared with 12-mer
RSRTKIIRIR [10-mer version of G1] | almost completely lost its ability to block HSV-1 entry
RRRRIRRRQK [10-mer version of G2] | very similar to the 12-mer in its ability to block HSV-1 entry
